Data as given in US8361998B2, “Compounds and their use as IKACh blockers” (AstraZeneca AB, priority 2010, dated 2013).
Structures can show the parent of a compound that is named as a salt.

Tested on: anaesthetized rabbits subjected to vagal stimulation
Test: In vivo PD model, anaesthetized rabbits with vagal stimulation: right atrial effective refractory period (RAERP), QT
Set-up: species or system rabbit
Procedure: Rabbits were anaesthetized using ketalar and domitor (2.5 and 0.07 mg/kg, respectively) as an i.v. bolus followed by a maintenance i.v. infusion (11 and 0.33 mg/kg/h, respectively) and ventilated with room air. Two percutaneous polyethylene catheter (Venflon 0.8 mm, Viggo, Helsingborg, Sweden) for administration of anaesthetics and drug infusions, respectively, were inserted into marginal veins on the right and left ear. A polyethylene catheter (Intramedic PE 160 Clay Adams, Becton Dickinson, Sparks, Md., USA) was inserted into the left carotid artery and advanced to the level of the aortic arch for blood pressure recording (by means of a pressure transducer, Peter von Berg Medizintechnik Gmbh, Kirchseeon/Englharting, Germany) and for blood sampling. For recording of right atrial electrogram and for atrial pacing, a 4F quadripolar electrophysiological recording catheters (Electrophysiology catheter-Deflectable tip, Biosense Webster Inc, Johnson & Johnson, Diamond Bar, Calif., USA) was advanced into the right jugular vein and positioned high up in the right atrium (HRA). Electrodes were advanced via introducers (4F Fast-Cath haemostasis introducer, ST. Jude Medical, DAIG Division, Inc. Minnetonka, Minn., USA) correctly positioned through fluoroscopic guidance. The effective refractory period in the right atrium (RAERP) was determined at a stimulation current strength approximately 20% above the threshold for pacing the atria. A custom-made PC-based (AstraZeneca R&D, Mölndal, Sweden) programmable stimulator and constant current pulse generator (WPI Stimulus Isolator, World Precision Instruments, Sarasota, Fla., USA) were used for stimulation at one or two predefined basic cycle lengths (S1) of for example 200 and 300 ms. A premature extra stimulus (S2) was introduced after every 10th paced basic beat with increments of 2 ms until capture. […] For vagal stimulation, both vagal nerves were ligated and cut in the cervical region and propranolol (0.5 mg/kg) was administrated as an i.v. infusion to decrease sympathetic influence. Electrodes were inserted in the middle of the right vagal nerve to stimulate the efferent vagi. The RAERP was determined without or with vagal stimulation at 50% of maximal vagal response. Subsequent infusion of compound aimed to increase the RAERP with 20 ms during the first dose of two consecutive doses. The drug infusion was followed by a washout period of approximately 30-60 min. QT prolongation was recorded from surface electrocardiography (ECG). The effect on RAERP was measured several times during infusion and washout and blood samples were taken at each measurements. Effect and plasma concentration data was analysed accounting for a concentration-effect-time delay and the unbound plasma concentration (Ceu) increasing the RAERP by 20 ms was calculated.

SMILES	Ceu 20 ms
Cc1cc(C(=O)N(C)[C@H](CN2CC(O)C2)C2CC2)ccc1F [Example 7.1, (S)—N-(1-Cyclopropyl-2-(3-hydroxyazetidin-1-yl)ethyl)-4-fluoro-N,3-dimethylbenzamide]	5.40 µM
CCC[C@@H](CN1CC(O)C1)N(C)C(=O)c1ccc(Cl)cc1 [Example 8.2, (S)-4-Chloro-N-(1-(3-hydroxyazetidin-1-yl)pentan-2-yl)-N-methyl-benzamide, hydrochloride]	0.34 µM
CN(C(=O)c1ccc(Cl)cc1)[C@H](CN1CC(O)C1)C1CCC1 [Example 39.14, (S)-4-Chloro-N-(1-cyclobutyl-2-(3-hydroxyazetidin-1-yl)ethyl)-N-methylbenzamide]	0.10 µM
CC(C)[C@@H](CN1CCCC1)N(C)C(=O)c1ccc(F)c(Cl)c1 [Example 16.55, (S)-3-Chloro-4-fluoro-N-methyl-N-(3-methyl-1-(pyrrolidin-1-yl)butan-2-yl)benzamide]	0.60 µM
CC(C)[C@@H](CN1CCCC1)N(C)C(=O)c1ccc(Cl)cc1 [Example 18, (S)-1-(2-(4-Chloro-N-methylbenzamido)-3-methylbutyl)pyrrolidinium chloride]	0.70 µM
CN(C(=O)c1ccc(F)c(Cl)c1)[C@H](CN1CC(O)C1)C1CC1 [Example 7.3, (S)-3-Chloro-N-(1-cyclopropyl-2-(3-hydroxyazetidin-1-yl)ethyl)-4-fluoro-N-methylbenzamide]	2.10 µM
CCC[C@@H](CN1CCC1)N(C)C(=O)c1ccc(F)c(C)c1 [Example 1.4, (S)-N-(1-(Azetidin-1-yl)pentan-2-yl)-4-fluoro-N,3-dimethyl-benzamide]	0.60 µM
CC(C)[C@@H](CN1CCCC1)N(C)C(=O)c1ccc(Br)cc1 [Example 19, (S)-1-(2-(4-bromo-N-methylbenzamido)-3-methylbutyl)pyrrolidinium 3-carboxy-2,3-dihydroxypropanoate]	0.34 µM
Cc1cc(C(=O)N(C)[C@H](CN2CCC2)C2CC2)ccc1F [Example 4.1, (S)—N-(2-(Azetidin-1-yl)-1-cyclopropylethyl)-4-fluoro-N,3-dimethylbenzamide]	0.74 µM
CC(C)C[C@@H](CN1CC(O)C1)N(C)C(=O)c1ccc(C#N)cc1F [Example 38.6, 4-Cyano-2-fluoro-N-[(2S)-1-(3-hydroxyazetidin-1-yl)-4-methylpentan-2-yl]-N-methylbenzamide]	0.72 µM
CC(C)[C@@H](CN1CCC1)N(C)C(=O)c1ccc(Br)cc1.O=C(O)CCC(=O)O [Example 5.2]	0.60 µM
CN(C(=O)c1ccc(Br)cc1)[C@H](CN1CC(O)C1)C1CC1 [Example 4.4, (S)-4-Bromo-N-(1-cyclopropyl-2-(3-hydroxyazetidin-1-yl)ethyl)-N-methylbenzamide]	0.75 µM
Cc1cccc(C(=O)N(C)[C@H](CN2CCCC2)C(C)C)c1 [Example 12.2, (S)-1-(2-(N,3-Dimethylbenzamido)-3-methylbutyl)pyrrolidinium 2,3-dihydroxysuccinate]	2.20 µM
CC(C)[C@@H](CN1CC[C@H](O)C1)N(C)C(=O)c1ccc(Cl)cc1 [Example 10.2, 4-Chloro-N-((S)-1-((S)-3-hydroxypyrrolidin-1-yl)-3-methylbutan-2-yl)-N-methylbenzamide hemi tartrate]	1.40 µM
Cc1cc(C(=O)N(C)[C@H](CN2CC(O)C2)C2CCC2)ccc1F [Example 39.16, (S)—N-(1-Cyclobutyl-2-(3-hydroxyazetidin-1-yl)ethyl)-4-fluoro-N,3-dimethylbenzamide]	0.24 µM
CC(C)[C@@H](CN1CC(O)C1)N(C)C(=O)c1ccc(Cl)cc1 [Example 6.2, (S)-4-Chloro-N-(1-(3-hydroxyazetidin-1-yl)-3-methylbutan-2-yl)-N-methylbenzamide]	0.40 µM

SMILES	Ceu 20 ms
CC(C)C[C@@H](CN1CC(O)C1)N(C)C(=O)c1ccc(Cl)cc1 [Example 38.2, 4-Chloro-N-[(2S)-1-(3-hydroxyazetidin-1-yl)-4-methylpentan-2-yl]-N-methylbenzamide]	0.38 µM
CCC[C@@H](CN1CC(O)C1)N(C)C(=O)c1ccc(F)c(F)c1 [Example 8.1, (S)-3,4-Difluoro-N-(1-(3-hydroxyazetidin-1-yl)pentan-2-yl)-N-methylbenzamide]	0.87 µM
CCCC[C@@H](CN1CC(O)C1)N(C)C(=O)c1ccc(C#N)cc1 [Example 33.4, 4-Cyano-N-[(2S)-1-(3-hydroxyazetidin-1-yl)hexan-2-yl]-N-methylbenzamide]	0.52 µM
CCC[C@@H](CN1CC(O)C1)N(C)C(=O)c1ccc(F)cc1 [Example 8.6, (S)-4-Fluoro-N-(1-(3-hydroxyazetidin-1-yl)pentan-2-yl)-N-methylbenzamide]	2.50 µM
CN(C(=O)c1ccc(Cl)cc1)[C@H](CN1CC(O)C1)C1CC1 [Example 7.2, (S)-4-Chloro-N-(1-cyclopropyl-2-(3-hydroxyazetidin-1-yl)ethyl)-N-methylbenzamide]	1.00 µM
Cc1cc(C(=O)N(C)[C@H](CN2CC(O)C2)C(C)C)ccc1F [Example 6.1, (S)-4-Fluoro-N-(1-(3-hydroxyazetidin-1-yl)-3-methylbutan-2-yl)-N,3-dimethylbenzamide]	0.54 µM
CC(C)C[C@@H](CN1CC(O)C1)N(C)C(=O)c1ccc(F)c(F)c1 [Example 38.1, 3,4-Difluoro-N-[(2S)-1-(3-hydroxyazetidin-1-yl)-4-methylpentan-2-yl]-N-methylbenzamide]	0.34 µM
CCCC[C@@H](CN1CC(O)C1)N(C)C(=O)c1ccc(F)cc1 [Example 33.7, 4-Fluoro-N-[(2S)-1-(3-hydroxyazetidin-1-yl)hexan-2-yl]-N-methylbenzamide]	0.80 µM
CC[C@H](C)[C@@H](CN1CC(O)C1)N(C)C(=O)c1ccc(C#N)cc1F [Example 29.7, 4-Cyano-2-fluoro-N-((2S,3S)-1-(3-hydroxyazetidin-1-yl)-3-methylpentan-2-yl)-N-methylbenzamide]	0.79 µM
Cc1cc(C(=O)N(C)[C@H](CN2CCCC2)C(C)C)ccc1F [Example 12.1, (S)-4-Fluoro-N,3-dimethyl-N-(3-methyl-1-(pyrrolidin-1-yl)butan-2-yl)benzamide-dihydroxysuccinate]	0.68 µM
CC(C)[C@@H](CN1CCC1)N(C)C(=O)c1ccc(Cl)cc1 [Example 5.1, (S)-N-(1-(Azetidin-1-yl)-3-methylbutan-2-yl)-4-chloro-N-methylbenzamide]	1.00 µM
CC(C)[C@@H](CN1CCCC1)N(C)C(=O)c1ccc(F)cc1Cl [Example 1.17, (S)-2-Chloro-4-fluoro-N-methyl-N-(3-methyl-1-(pyrrolidin-1-yl)butan-2-yl)benzamide]	1.40 µM
CCC[C@@H](CN1CCC1)N(C)C(=O)c1ccc(Cl)cc1 [Example 1.2, (S)-N-(1-(Azetidin-1-yl)pentan-2-yl)-4-chloro-N-methylbenzamide]	0.40 µM
CC[C@@H](CN1CC(O)C1)N(C)C(=O)c1ccc(Cl)cc1 [Example 39.12, (S)-4-Chloro-N-(1-(3-hydroxyazetidin-1-yl)butan-2-yl)-N-methylbenzamide]	2.06 µM
CN(C(=O)c1ccc(C#N)cc1)[C@H](CN1CC(O)C1)C1CCC1 [Example 39.2, (S)-4-Cyano-N-(1-cyclobutyl-2-(3-hydroxyazetidin-1-yl)ethyl)-N-methylbenzamide]	0.28 µM
